Tests used:
living cells [1] = assay: cytotoxicity test in living cells; format: cell-based; conditions: concentration of 1 μM
Procedure: (§1) More specifically, the cytotoxicity of DBOV-Mes-OTEG was tested in living cells. […] Moreover, the uptake of DBOV-Mes-OTEG into living cells was investigated by imaging 21 hours with low laser intensity at the spinning disk confocal microscopy (Visitron).

fixed cell samples = assay: blinking-mode imaging of fixed samples in PBS; conditions: fixed samples in PBS without special imaging buffer; continuous exposure, laser intensity 10 kW/cm^2 for 90 min
From the text: After the aforementioned live cell imaging, the samples were fixed and imaged in phosphate-buffered saline (PBS) without special imaging buffer.

living cells [2] = assay: uptake into living cells, spinning disk confocal microscopy; format: cell-based
Procedure: as §1

solubility in water = format: physicochemical; conditions: room temperature
Procedure: In accordance with the present invention, the solubility of the compound having the general formula (1) in water at 23° C. is measured as follows: 1.0 mg sample is weighed into an Erlenmeyer flask and is then mixed homogeneously with 4 ml of water with a spatula at 23° C. The remaining substance on the spatula is stripped off with a magnetic stirrer bar, which is then added to the Erlenmeyer flask. While stirring with a magnetic stirrer, water is added dropwise with a burette until the solution in the Erlenmeyer flask becomes clear at 23° C. After that, the solubility of compound in water is calculated by calculating the ratio of weighed compound divided by the volume of added water and then by recalculating this ratio to 1 l of water.

3,4,5-tris(2,5,8,11-tetraoxatridecan-13-yloxy)phenyl substituted 6,14-dimesityldibenzo[hi,st]ovalene [DBOV-Mes-OTEG]
cytotoxicity (living cells [1]): does not show any significant toxicity | stability of blinking signals (photostability) (fixed cell samples): no significant decrease of blinking signals | intracellular location (living cells [2]; after 21 hours incubation): in the nucleus and nuclear membrane | uptake / intracellular location (living cells [2]; beginning of the incubation): taken into the cytoplasm | solubility in water (solubility in water): 0.1 g/L
